Our source for the Activity values is ChEMBL document CHEMBL5390281.

The source made the active and inactive calls. No cut-off for these calls is given here.

Common to all, as to format: functional, organism-based
The test system of assay [1] is Mus musculus. As to the kind of experiment: Antiinflammatory activity against CFA-induced persistent inflammation model of Swiss mouse assessed as prevention in paw edema formation at 2 mg/kg, ip incubated for 40 mins by plethysmometer analysis.
For assay [2], the system named is Mus musculus. The assay is described as follows: Antinociceptive activity against CFA-induced persistent inflammation model of Swiss mouse assessed as prevention in CFA-induced allodynia at 2 mg/kg, ip incubated for 40 mins by von frey test.
Assay [3] has as its system Mus musculus. The assay is described as follows: Antinociceptive activity in Swiss mouse assessed as reduction in pain like behavior of mouse in second phase at 5 mg/kg, ip pretreated for 40 min followed by formalin challenge and measured after 30 min. The following applies: time 70.0 min.
Assay [4] relates to Mus musculus. As to the kind of experiment: Antinociceptive activity against noxious cold stimulated-persistent inflammation model of Swiss mouse assessed as reduction in pain like behavior at 5 mg/kg, ip pretreated with compound for 40 min followed by noxious cold stimulation and measured after 3 days in the presence of naloxone by cold plate test. The following applies: time 4360.0 min.

The subject of assay [5] is Mus musculus. The assay is described as follows: Antinociceptive activity against thermal stimulated-induced persistent inflammation model of Swiss mouse assessed as increased tail flick latency at 5 mg/kg, ip pretreated with compound for 40 min followed thermal stimulation and measured after 3 days in the presence of naloxone by tail flick test. The following applies: time 4360.0 min.

In assay [6] the test system is Mus musculus. As to the kind of experiment: Antinociceptive activity against thermal stimulated-induced persistent inflammation model of Swiss mouse assessed as increased tail flick latency at 5 mg/kg, ip pretreated with compound for 40 mins followed by thermal induction and measured after 2 hrs by tail flick test. The following applies: time 160.0 min.
The subject of assay [7] is Mus musculus. As to the kind of experiment: Antinociceptive activity in Swiss mouse assessed as reduction in pain like behavior of mouse in first phase at 5 mg/kg, ip pretreated for 40 min followed by formalin challenge and measured after 30 min. The following applies: time 70.0 min.
Assay [8] deals with Mus musculus. As to the kind of experiment: Antinociceptive activity against noxious cold stimulated-induced persistent inflammation model of Swiss mouse assessed as reduction in pain like behavior at 5 mg/kg, ip pretreated with compound for 40 min followed by noxious cold stimulation and measured after 2 hrs by cold plate test. The following applies: time 160.0 min.

With `C[C@@H]1C[C@H]2[C@@H]3CCC4=CC(=O)C=C[C@]4(C)[C@@]3(F)[C@@H](O)C[C@]2(C)[C@@]1(O)C(=O)CO`, the result in the assay on Mus musculus [1] and in the assay with Mus musculus [2] was Active.
For the compound `CN1CC[C@]23c4c5ccc(O)c4O[C@H]2[C@@H](O)C=C[C@H]3[C@H]1C5`, the result with Mus musculus [3], in the assay on Mus musculus [6], in the assay on Mus musculus [7] and in the assay on Mus musculus [8] was Active. Further, the result in the assay on Mus musculus [4] and in the assay with Mus musculus [5] was inactive.
Consider `COc1ccc2c(c1)c(CC(=O)O)c(C)n2C(=O)c1ccc(Cl)cc1`, for which the result in the assay with Mus musculus [3] was Active. Also, the outcome with Mus musculus [7] was inactive.
